Experimental data: publication PMC12365235, “Molecular mechanisms of thiazide-like diuretics-mediated inhibition of the human Na-Cl cotransporter” (Nature Communications, 2025)

Target: T1, hNCC(N227A) (Homo sapiens, UniProt P55017, N227A)
T1 construct: expressed in transfected cells
T1 sequence (P55017 1-1021 N227A): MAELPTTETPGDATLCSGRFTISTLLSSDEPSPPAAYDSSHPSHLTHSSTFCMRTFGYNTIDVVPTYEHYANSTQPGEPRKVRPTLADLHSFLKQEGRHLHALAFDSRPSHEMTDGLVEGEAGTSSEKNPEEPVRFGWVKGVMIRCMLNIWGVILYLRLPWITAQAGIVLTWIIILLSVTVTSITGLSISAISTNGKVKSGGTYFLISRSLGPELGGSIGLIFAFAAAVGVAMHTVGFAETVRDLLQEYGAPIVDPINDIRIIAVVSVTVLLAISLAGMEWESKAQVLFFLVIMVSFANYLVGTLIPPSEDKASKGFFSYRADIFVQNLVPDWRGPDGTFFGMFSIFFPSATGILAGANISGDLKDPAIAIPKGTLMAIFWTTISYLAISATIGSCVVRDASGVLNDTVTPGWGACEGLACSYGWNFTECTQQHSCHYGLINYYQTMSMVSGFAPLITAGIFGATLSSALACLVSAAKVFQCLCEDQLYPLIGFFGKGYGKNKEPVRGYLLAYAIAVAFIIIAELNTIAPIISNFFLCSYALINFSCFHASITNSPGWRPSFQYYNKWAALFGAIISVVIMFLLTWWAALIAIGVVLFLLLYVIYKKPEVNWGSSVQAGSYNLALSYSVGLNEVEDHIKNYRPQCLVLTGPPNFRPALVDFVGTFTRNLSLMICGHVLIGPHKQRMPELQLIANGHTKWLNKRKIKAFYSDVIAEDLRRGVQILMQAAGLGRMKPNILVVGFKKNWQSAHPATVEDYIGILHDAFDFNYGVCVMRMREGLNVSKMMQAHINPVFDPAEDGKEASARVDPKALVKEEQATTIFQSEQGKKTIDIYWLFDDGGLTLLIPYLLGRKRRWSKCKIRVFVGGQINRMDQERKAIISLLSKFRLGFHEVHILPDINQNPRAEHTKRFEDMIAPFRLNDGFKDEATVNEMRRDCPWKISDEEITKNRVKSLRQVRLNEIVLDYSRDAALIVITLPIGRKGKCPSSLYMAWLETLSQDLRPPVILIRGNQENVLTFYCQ
Assay: 125I- uptake assay, hNCC(N227A) variant
Format: cell-based
Details: for increase in IC50 relative to hNCC(WT) / IC50: N227A substitution; for IC50: iodide uptake
Method: HEK293S cell lines, cultured in 293 Freestyle medium (Life Technologies; plus 10% fetal bovine serum), stably expressing hNCC and its variants were generated following published protocols. Cells were transfected using Lipofectamine 3000 (Invitrogen) with a pSBbi-RP-based plasmid containing hNCC or its variants and the SB100X vector. Puromycin (2 μg/mL; Gemini Bio-Products) was used for selection of stable cell lines.
To prepare for the uptake experiment, cells were plated at 0.5 × 10^6 cells/well in 24-well plates one day in advance. To activate NCC, cells were treated with a chloride-free hypotonic solution composed of 67.5 mM sodium-, 2.5 mM potassium-, 0.25 mM magnesium-, and 0.25 mM calcium-gluconate, as well as 7.5 mM HEPES pH 7.4 (buffered using Tris) at 37 °C for 10 min[72]. After the activation step, the experiments were carried out at room temperature. Ten minutes before the start of ^125I^− uptake, 70 μM Bumetanide (Thermo Scientific Chemicals) and 100 μM 4,4′-diisothiocyanatostilbene-2,2′-disulfonic acid (DIDS; Sigma) were added to suppress background iodide uptake activity. Indicated thiazide diuretics were also added to the indicated concentrations 10 min before the start of ^125I^− uptake. The original buffer was switched to an uptake buffer composed of 135 mM Na-gluconate, 5 mM K-gluconate, 1 mM Mg-gluconate, 1 mM Ca-gluconate, 70 μM bumetanide, 100 μM DIDS, 1 mM NaI, 0.25 μCi/ml Na^125I (American Radiolabeled Chemicals, Inc.), and 15 mM HEPES pH 7.4 (buffered using Tris), in the presence or absence of thiazide diuretics to initiate ^125I^− uptake. The ^125I^− uptake process lasted 1 h and was stopped by two rapid washes using ice-cold 110 mM MgCl2. Cells lysed using 1% sodium dodecyl sulfate (SDS) were analyzed by scintillation counting.
To calculate the fold change of the half-maximal inhibitory concentration (IC50) between hNCC(WT) and different hNCC variants, individual dose-response curves were normalized first using the smallest mean and the value of the lowest concentration as 0% and 100%, respectively. The normalized data were then fitted using the “EC50 shift” nonlinear regression in GraphPad Prism 10 with the shared EC50Control assigned to be the IC50 of hNCC(WT). The following constraints were used in the EC50 shift analysis. The EC50Control was set to be shared across all curves under analysis and constrained to be greater than 0. The EC50Ratio was constrained to be greater than 0. The bottom, top, and HillSlope were constrained to be 0, 100, and −1, respectively. For Fig. 1f, g and Supplementary Fig. 2d, GraphPad Prism 10 was used to perform curve fitting and IC50 calculation for normalized data using y = 100/(1 + (x/IC50)).

NS(=O)(=O)c1cc(C2(O)NC(=O)c3ccccc32)ccc1Cl (centres unmarked) [chlorthalidone]
increase in IC50 relative to hNCC(WT): > 1000 fold
IC50: 59 µM

CC1Cc2ccccc2N1NC(=O)c1ccc(Cl)c(S(N)(=O)=O)c1 (centres unmarked) [indapamide]
increase in IC50 relative to hNCC(WT): over 10,000 fold
effect of N227A substitution on potency relative to its effect on polythiazide (N227A, polythiazide sensitivities from ref 36): over 50 fold
IC50: 620 µM
